Among the data in PubChem BioAssay AID788 (SRMLSC, 2007) are IC50 values, retold here.

One may read the pIC50 as the negative decadic logarithm of the IC50, by convention in mol/L. Usually IC50 stands for the concentration that inhibits the measured activity by half.

Assay [1] concerns S. cerevisiae wild-type background strain growth inhibition. Nature of the assay: vps1Δ apl2Δ double mutant yeast growth inhibitors – S. cerevisiae, background strain comparison, post-Golgi transport modulator project, dose response (AID 788). The conditions noted are these: S. cerevisiae vps1Δ apl2Δ growth inhibition, dose response; measured here: wild-type background strain growth.

For assay [2], the system named is S. cerevisiae vps1Δ apl2Δ growth inhibition, dose response. Described as above.

pIC50: −log10 of the molar value. Activity calls are given as the source filed them. How the calls were made is not given here.

As for `C=C(C)COc1ccc(-c2ncncc2Oc2ccc(OC)cc2)c(O)c1`, the pIC50 in assay [1] is less than 5.00.

As for `CS(=O)(=O)N1CCC(C(=O)NCCN2CCN(Cc3ccccc3)CC2)CC1`, the pIC50 in assay [1] is less than 5.00. The IC50 in assay [2] was > 10 µM (inactive). As for `Cc1ccc(C)c(NS(=O)(=O)c2cc(C(=O)N3CCc4ccccc4C3)ccc2Cl)c1`, the pIC50 in assay [1] was 5.16. The IC50 in assay [2] was 8.09 µM (inactive). For `Fc1ccc(-c2noc(C3CCN(Cc4cccnc4)CC3)n2)cc1`, the negative-log IC50 (pIC50) is less than 5.00 in assay [1] and 5.22 in assay [2]. With `Cc1ccc(Cl)c(OCCCCN(C)Cc2ccccc2)c1`, the pIC50 was less than 5.00 in assay [1] and 5.50 in assay [2]. In assay [1], `COc1ccc(N2CCN(C(=O)CCNS(=O)(=O)c3ccc(Br)s3)CC2)cc1` had a pIC50 of less than 5.00. The IC50 in assay [2] was > 10 µM (inactive). Take `C=CCc1ccc(OCCCCN2CC(C)OC(C)C2)c(OC)c1` (stereo not given): the pIC50 in assay [1] is less than 5.00; in assay [2], 5.63. For `O=C(OCn1ncc(Cl)c(Cl)c1=O)c1ccc(C(F)(F)F)cc1`, in that order: less than 5.00 and 4.63.

Consider `CC(C)c1ccc(C2C3CSCC=C3C(C#N)=C(N)C2(C#N)C#N)cc1` (stereo not given), for which the pIC50 in assay [1] was 6.07. In addition, in assay [2], the IC50 is 2.08 µM (inactive).

Turning to `C=CCc1ccc(OCC(O)CN2CCC(Cc3ccccc3)CC2)c(OC)c1` (stereo not given), the pIC50 in assay [1] is 4.72; in assay [2] it was 5.38. For `CCOC(=O)Cc1c(C)c2ccc(N(CC)CC)cc2oc1=O`, in assay [1], the pIC50 was less than 5.00. In assay [2], the IC50 was > 10 µM (inactive). For `COc1ccc(C(=O)c2c(C(F)(F)F)oc3c2C(=O)c2ccccc2C3=O)cc1`, the pIC50 in assay [1] was 5.64. For the same molecule, the IC50 in assay [2] is 22.7 µM (inactive). As to `O=[N+]([O-])c1cc(Cl)cc(/C=N\Nc2ccccn2)c1O`, the pIC50 in assay [2] is 5.01. As to `CCCCC1(CCCC)C(=O)NC(=Nc2cccc(C)c2)NC1=O`, in assay [1], the pIC50 was less than 5.00. In assay [2], the IC50 is > 10 µM (inactive). As to `O=C(O)c1cc(-c2ccc(/C=N/Nc3ccc(Cl)cc3)o2)ccc1Cl`, the pIC50 is 4.79 in assay [1] and 4.96 in assay [2].

In the case of `CC(C)c1ccc(C(=O)CSc2n[nH]c(-c3ccncc3)n2)cc1`, in assay [2], the pIC50 is 5.25. As to `C=C(C)C1CC=C(CN2CC(C)OC(C)C2)CC1` (stereo not given), the pIC50 was less than 5.00 in assay [1] and 5.35 in assay [2].

In the case of `O=C(Nc1nc(-c2ccccn2)cs1)c1ncc(Cl)c(Cl)c1Cl`, the results for the pIC50 in assay [1] and in assay [2] were 4.88 and 5.36, respectively. Take `CCCn1c(SCc2cc(=O)oc3ccc4ccccc4c23)n[nH]c1=O`: in assay [1], the pIC50 is less than 5.00. In addition, in assay [2], the IC50 was > 10 µM (inactive). `O=C(NCC(c1cccnc1)N1CCN(c2ccccc2)CC1)c1ccc2c(c1)OCO2` (stereo not given): the pIC50 in assay [1] is less than 5.00. In addition, the IC50 in assay [2] is > 10 µM (inactive). `CCOC(=O)Cn1cc(C=O)c2ccccc21` showed a pIC50 in assay [1] of less than 5.00. The IC50 in assay [2] is > 10 µM (inactive). For `COc1ccc(N2CCN(c3oc(-c4ccco4)nc3C#N)CC2)cc1`, in that order: less than 5.00 and > 10 µM (inactive). With `Cc1cc(C)nc(N/N=C/C(Cl)=C/c2ccccc2)n1`, the negative-log IC50 (pIC50) in assay [1] was less than 5.00. The IC50 in assay [2] was > 10 µM (inactive).

Take `O=C(NCC1COc2ccccc2O1)c1ccc(Cl)cc1` (stereo not given): the pIC50 in assay [2] is 5.88. In assay [1], `CCCCSCCCNC(=O)Nc1cccc(OC)c1` gave a pIC50 of less than 5.00. Besides, in assay [2], the IC50 is > 10 µM (inactive). For `Cc1ccc(S(=O)(=O)N2CC3CC(C2)c2cccc(=O)n2C3)cc1` (stereo not given), in that order: less than 5.00 and > 10 µM (inactive). With `O=C(OCn1ncc(Cl)c(Cl)c1=O)c1ccccc1Cl`, the results for the negative-log IC50 (pIC50) in assay [1] and in assay [2] were 4.78 and 4.81, respectively. In assay [1], `Nc1cc(N)c(OCC(F)(F)F)cc1OCC(F)(F)F` had a pIC50 of less than 5.00. In addition, the IC50 in assay [2] is > 10 µM (inactive). For `COc1ccc2c(c1)C(C)=CC(C)(C)N2C(=O)CSc1nnc(-c2ccc(C)cc2)o1`, in that order: less than 5.00 and > 10 µM (inactive). Turning to `Cc1ccc(CSc2nc3ccccc3cc2C=O)cc1`, the pIC50 in assay [1] was 5.68. Moreover, the IC50 in assay [2] was 2.37 µM (inactive). The molecule `CCOC(=O)N1CCN(c2ccc(S(=O)(=O)N(Cc3ccccc3)Cc3ccccc3)cn2)CC1` showed a pIC50 in assay [1] of less than 5.00. Moreover, the IC50 in assay [2] is > 10 µM (inactive). In assay [1], `O=C(Nc1cccc(Cl)c1)N1CCN(C/C=C/c2ccccc2)CC1` gave a pIC50 of less than 5.00. Moreover, in assay [2], the IC50 was > 10 µM (inactive). As to `N#Cc1nc(COc2ccc(-c3ccccc3)cc2)oc1NCCCN1CCOCC1`, the pIC50 in assay [1] was 4.81; in assay [2] it was 4.86.

`Cc1ccc(S(=O)(=O)NC(CC(C)C)C(=O)Oc2ccc3c4c(c(=O)oc3c2)CCC4)cc1` (stereo not given) had a pIC50 in assay [1] of less than 5.00. Further, the IC50 in assay [2] was > 10 µM (inactive). Molecule `CCOc1cc(/C=C\[N+](=O)[O-])ccc1OCC(=O)Nc1ccccc1C` had a pIC50 in assay [1] of less than 5.00. For the molecule `O=C(COc1ccc(Br)cc1F)NC1CCN(Cc2ccccc2)CC1`, the pIC50 in assay [1] is less than 5.00; in assay [2] it was 5.52. As to `Nc1c(C(=O)OCC2CCCO2)c2nc3ccccc3nc2n1-c1ccc2c(c1)OCCO2` (stereo not given), the pIC50 in assay [1] is less than 5.00. For the same molecule, in assay [2], the IC50 is > 10 µM (inactive). For `CCN1C(=O)c2ccc(C(=O)NCc3ccccc3)cc2C1=O`, in that order: less than 5.00 and > 10 µM (inactive). `Cc1cccc(-n2c(N)c(C(=O)NCCN3CCOCC3)c3nc4ccccc4nc32)c1` gave a pIC50 in assay [1] of less than 5.00. For the same molecule, the IC50 in assay [2] is > 10 µM (inactive).

With `Cc1sc(NC(=O)c2ccco2)c(C(c2cccnc2)N2CCC(C)CC2)c1C` (stereo not given), the pIC50 in assay [1] is 5.24. Moreover, the IC50 in assay [2] was 9.99 µM (inactive). For the molecule `CCN(CC)CCCN(Cc1cc2cc3c(cc2[nH]c1=O)OCCO3)C(=O)Nc1ccc(F)cc1`, the negative-log IC50 (pIC50) in assay [1] is less than 5.00. For the same molecule, in assay [2], the IC50 is > 10 µM (inactive). `O=C(O)Cn1c(SCCOc2ccccc2F)nc2ccccc21` gave a pIC50 in assay [1] of less than 5.00. Also, the IC50 in assay [2] was > 10 µM (inactive). For `O=S(=O)(c1cnccc1N1CCN(/N=C/c2ccc(Br)cc2)CC1)N1CCCCC1`, the pIC50 in assay [1] is less than 5.00. For the same molecule, the IC50 in assay [2] was > 10 µM (inactive). Turning to `O=C(OCn1ncc(Br)c(Br)c1=O)c1ccc(F)cc1`, the results for the pIC50 in assay [1] and in assay [2] were 5.27 and 5.29, respectively. As for `O=C(NC(C(=O)c1ccccc1)N1CCCCC1)c1ccccc1` (stereo not given), the pIC50 in assay [1] is less than 5.00. Further, the IC50 in assay [2] was > 10 µM (inactive).

On to `OC(COCc1ccc(Cl)cc1)CN1CC=C(c2ccccc2)CC1` (stereo not given), for which the values for the pIC50 in assay [1] and in assay [2] were 4.68 and 5.33, respectively. In the case of `CCc1ccc(N(C(=O)c2csnn2)C(C(=O)NC(C)(C)C)c2ccncc2)cc1` (stereo not given), in assay [1], the pIC50 is less than 5.00. Moreover, the IC50 in assay [2] was > 10 µM (inactive). For the molecule `N=c1c2c(-c3ccccc3)c(-c3ccccc3)n(Cc3ccco3)c2ncn1Cc1ccccc1`, the pIC50 in assay [2] is 4.72. For `Cc1[nH]nc(N=CC2=C(O)CC(C)(C)CC2=O)c1-c1ccc(Cl)cc1`, the IC50 in assay [2] is > 10 µM (inactive). Take `CC(Sc1ccsc1[N+](=O)[O-])C(=O)NCCc1ccc(Cl)cc1` (stereo not given): the IC50 in assay [2] is > 10 µM (inactive).

On to `COc1ccc(OCCSc2nnc3sc4ccccc4n23)cc1`, for which, in assay [2], the IC50 is > 10 µM (inactive).

On to `Cc1ccc(C(=O)Nc2ccc(Cc3ccncc3)cc2)cc1[N+](=O)[O-]`, for which the pIC50 in assay [2] was 4.63. `c1ccc2c(c1)oc1c(Nc3ccc(CN4CCOCC4)cc3)ncnc12` showed a pIC50 in assay [1] of less than 5.00. On to `O=C(OCn1ncc(Br)c(Br)c1=O)c1ccccc1Cl`, for which the pIC50 in assay [2] is 4.68.

`O=C(Nc1nnc(-c2ccc(Cl)cc2)o1)c1ccccc1Br` gave a pIC50 in assay [1] of 4.88. As to `CCOc1ccc(NC(=O)N(C2CCCCC2)C(C)c2cccnc2)cc1` (stereo not given), in assay [2], the negative logarithm of the IC50 (pIC50) is 4.82. For `CC(c1nnc(SCn2nnc3ccccc3c2=O)n1-c1ccc(Cl)cc1)N(C)C` (stereo not given), in assay [2], the pIC50 is 5.67. Turning to `CCOC(=O)C1=C(N)N2C(=O)C(C)SC2=C(C(=O)OC)C1c1ccccc1OC` (stereo not given), the pIC50 in assay [1] was 6.79. For `O=C(NCC(c1cccnc1)N1CCN(c2ccc(F)cc2)CC1)OCc1ccccc1` (stereo not given), the pIC50 in assay [2] is 4.64. In assay [1], `O=C(NC1CCN(Cc2ccccc2)CC1)C1COc2ccccc2O1` (stereo not given) showed a pIC50 of less than 5.00. As to `Cc1c(Cl)c([N+](=O)[O-])nn1Cc1ccc(C(=O)N/N=C\c2cccc(Br)c2)o1`, the pIC50 in assay [1] was less than 5.00. For `Cc1nnc(-c2cccc(Br)c2)c2cn(-c3ccccc3)nc12`, the pIC50 in assay [1] is less than 5.00. As for `CCCCCCOc1ccc(CN2CCN(CCO)CC2)cc1`, in assay [2], the pIC50 was 5.28. In assay [1], `O=C(Nc1ccccc1)C1=C(O)CC(c2ccco2)CC1=Nc1ccccc1` (stereo not given) gave a pIC50 of less than 5.00. For `CC1CCC(C(C)C)C(OCC(O)CN2CCN(Cc3ccccc3)CC2)C1` (stereo not given), the pIC50 in assay [2] was 5.32.

As to `O=S1(=O)C=C(Sc2nc3ccccc3s2)c2ccccc21`, in assay [2], the IC50 was > 10 µM (inactive). Turning to `CC1CC(C)CN(CC(C)(C)NS(=O)(=O)c2ccc(Cl)cc2)C1` (stereo not given), in assay [1], the pIC50 is less than 5.00. `Cc1cc(NCCCN2CCOCC2)n2ncc(-c3ccc(Cl)cc3)c2n1` showed a pIC50 in assay [1] of less than 5.00.

For `CCOc1nc(SCCOc2ccccc2)nc(N(C)C)n1`, in assay [2], the IC50 was > 10 µM (inactive). Turning to `CC12CCC(c3c(C(=O)Nc4nccs4)nn(-c4ccccc4)c31)C2(C)C` (stereo not given), in assay [2], the IC50 was > 10 µM (inactive). `Cc1cccc(-c2nnc(-c3cccc(NC(=O)Cc4cccs4)c3)o2)c1` had a pIC50 in assay [1] of 4.82.

In the case of `N#Cc1ccccc1Cn1cc(C(=O)c2cccs2)c2ccccc21`, the IC50 in assay [2] is > 10 µM (inactive). In turn, `CCCCC(=O)Nc1nc(C)c(-c2csc(Nc3ccc(Cl)cc3)n2)s1` showed a pIC50 in assay [1] of 5.20. As to `O=C1C=C(c2ccccc2)C(=O)N1Nc1ccccc1`, the pIC50 in assay [2] is 4.70. As to `CC1CCN(S(=O)(=O)c2ccc(NC(=O)CCN3C(=O)c4ccccc4C3=O)cc2)CC1`, the IC50 in assay [2] is > 10 µM (inactive). On to `O=S(=O)(Cc1ccccc1Cl)N1CCN(Cc2ccc3c(c2)OCO3)CC1`, for which the pIC50 in assay [2] is 5.00.

Consider `O=C(C1CCCN(S(=O)(=O)c2ccc(Cl)cc2)C1)N(Cc1cccs1)C1CC1` (stereo not given), for which the IC50 in assay [2] was > 10 µM (inactive). Consider `O=C(CN1CCN(c2ccccn2)CC1)Nc1ccc(Oc2ccccc2)cc1`, for which the IC50 in assay [2] is > 10 µM (inactive).
